Experimental data: the supplement of paper PMC13380429

Experiments:
[1] = tested on: A549-ACE2 infected with SARS-CoV-2; test: cell count relative to DMSO; higher = less toxic; conditions: 24 h
[2] = tested on: Caco-2; test: cell viability relative to DMSO; higher = less toxic; conditions: 72 h
[3] = tested on: Calu-3; test: as above; conditions: 72 h
[4] = tested on: HepG2; test: as above; conditions: 72 h
[5] = tested on: U2OS; test: as above; conditions: 72 h
[6] = tested on: Vero E6; test: as above; conditions: 72 h
[7] = tested on: A549-ACE2 infected with SARS-CoV-2; test: SARS-CoV-2 infection rate relative to DMSO; higher = more infection; conditions: 24 h
[8] = tested on: A549-ACE2; test: drug-induced phospholipidosis relative to tamoxifen; higher = more phospholipidosis
[9] = tested on: A549-ACE2 infected with SARS-CoV-2; test: morphology score (similarity to uninfected cells); higher = more like uninfected cells; conditions: 24 h
[10] = tested on: Caco-2; test: relative viability EC50 (midpoint between 100% and the lowest measured viability); higher = less toxic; conditions: 72 h
[11] = tested on: Calu-3; test: as above; conditions: 72 h
[12] = tested on: HepG2; test: as above; conditions: 72 h
[13] = tested on: U2OS; test: as above; conditions: 72 h
[14] = tested on: Vero E6; test: as above; conditions: 72 h
[15] = tested on: Caco-2; test: drug sensitivity score (DSS) for viability; higher = more toxic; extreme values may be limits of the assay; conditions: 72 h
[16] = tested on: Calu-3; test: as above; conditions: 72 h
[17] = tested on: HepG2; test: as above; conditions: 72 h
[18] = tested on: U2OS; test: as above; conditions: 72 h
[19] = tested on: Vero E6; test: as above; conditions: 72 h
[20] = tested on: A549-ACE2; test: phospholipidosis EC50; higher = less potent phospholipidosis inducer

Cc1ccccc1N(C)C(=O)c1ccc([S+]([O-])c2nccs2)c([N+](=O)[O-])c1 (stereo not drawn)
Conditions	SARS-CoV-2 infection rate, [7] [%]	cell count, [1] [%]	cell viability, [2] [%]	cell viability, [3] [%]	cell viability, [4] [%]	cell viability, [5] [%]	cell viability, [6] [%]	morphology score, [9]
1 nM	–	–	96.9	102	106	98.5	103	–
10 nM	–	–	103	97.6	102	99.5	98.2	–
0.1 µM	101	99	–	–	–	–	–	-0.04
100 nM	–	–	98.5	102	95.1	95.6	100	–
0.3 µM	105	104	–	–	–	–	–	0.06
1 µM	92	99	–	–	–	–	–	0.22
1000 nM	–	–	82.8	103	89.5	41.7	88.1	–
3 µM	74	74	–	–	–	–	–	0.22
10000 nM	–	–	0.2	2.3	0.2	0	0.1	–

drug-induced phospholipidosis [%], [8]
Conditions	24 h	48 h	72 h
0.3 µM	6.61	5.74	-1.4
0.833333 µM	10.2	5.8	-1.83

Conditions	drug sensitivity score	relative viability EC50 [µM]
[10]	–	1.86
[11]	–	3.36
[12]	–	2.29
[13]	–	0.805
[14]	–	2.19
[15]	8.4	–
[16]	5.2	–
[17]	7.3	–
[18]	12.5	–
[19]	7.5	–

COc1cc(N2CCN(C)CC2)ccc1Nc1nccc(-c2cn(C)c3cnccc23)n1 [AZ191]
Conditions	SARS-CoV-2 infection rate, [7] [%]	cell count, [1] [%]	cell viability, [2] [%]	cell viability, [3] [%]	cell viability, [4] [%]	cell viability, [5] [%]	cell viability, [6] [%]	morphology score, [9]
1 nM	–	–	96.7	96.4	97.3	97.9	93.6	–
10 nM	–	–	94.4	93.6	93.8	104	101	–
0.1 µM	95	106	–	–	–	–	–	0.14
100 nM	–	–	96.6	93.3	98.4	99.6	98.5	–
0.3 µM	103	102	–	–	–	–	–	0.19
1 µM	95	116	–	–	–	–	–	0.38
1000 nM	–	–	98.5	101	87.1	103	95	–
3 µM	53	120	–	–	–	–	–	0.74
10000 nM	–	–	64.4	102	22.3	64.5	62.6	–

drug-induced phospholipidosis [%], [8]
Conditions	0.3 µM	0.833333 µM	3.33333 µM	6.66667 µM	10 µM
24 h	1.95	-3.91	0.16	32.4	35.2
48 h	-0.41	-2.25	-2.09	41.3	–
72 h	3.05	-1.34	-1.23	–	–

Conditions	drug sensitivity score	relative viability EC50 [µM]
[11]	–	> 10
[12]	–	1.9
[15]	1.9	–
[16]	0	–
[17]	6.4	–
[18]	1.5	–
[19]	2.6	–

Cn1nc(C(C)(C)C)cc1C(=O)N[C@@H](Cc1cccc(Cl)c1)C(=O)NCC#N [Cathepsin Inhibitor 1]
Conditions	SARS-CoV-2 infection rate, [7] [%]	cell count, [1] [%]	morphology score, [9]
0.3 µM	56	117	0.72
3 µM	33	125	0.85
10 µM	20	121	0.91
30 µM	17	121	0.91

drug-induced phospholipidosis [%], [8]
Conditions	0.3 µM	0.833333 µM	3.33333 µM	6.66667 µM	10 µM	30 µM
24 h	6.59	1.92	9.11	12.3	12.3	38.3
48 h	3.88	2.55	8.4	13.7	15.4	38.9
72 h	7.75	3.09	6.53	12.2	10.8	42

Cc1nc(Nc2cnn(C3CCNCC3)c2)nc2c1N(C)C(=O)c1cc3ccccc3cc1N2C [HTH-01-015]
Conditions	SARS-CoV-2 infection rate [%]	cell count [%]	cell viability [%]	morphology score	phospholipidosis EC50 [µM]
[1], 0.1 µM	–	97	–	–	–
[1], 0.3 µM	–	102	–	–	–
[1], 1 µM	–	103	–	–	–
[1], 3 µM	–	99	–	–	–
[2], 1 nM	–	–	94.7	–	–
[2], 10 nM	–	–	99.7	–	–
[2], 100 nM	–	–	97.7	–	–
[2], 1000 nM	–	–	103	–	–
[2], 10000 nM	–	–	77.7	–	–
[3], 1 nM	–	–	97.1	–	–
[3], 10 nM	–	–	108	–	–
[3], 100 nM	–	–	99.1	–	–
[3], 1000 nM	–	–	108	–	–
[3], 10000 nM	–	–	59.4	–	–
[4], 1 nM	–	–	106	–	–
[4], 10 nM	–	–	89.3	–	–
[4], 100 nM	–	–	101	–	–
[4], 1000 nM	–	–	109	–	–
[4], 10000 nM	–	–	67.7	–	–
[5], 1 nM	–	–	101	–	–
[5], 10 nM	–	–	108	–	–
[5], 100 nM	–	–	100	–	–
[5], 1000 nM	–	–	107	–	–
[5], 10000 nM	–	–	53.1	–	–
[6], 1 nM	–	–	106	–	–
[6], 10 nM	–	–	106	–	–
[6], 100 nM	–	–	104	–	–
[6], 1000 nM	–	–	98.5	–	–
[6], 10000 nM	–	–	74.1	–	–
[7], 0.1 µM	105	–	–	–	–
[7], 0.3 µM	105	–	–	–	–
[7], 1 µM	100	–	–	–	–
[7], 3 µM	77	–	–	–	–
[9], 0.1 µM	–	–	–	-0.27	–
[9], 0.3 µM	–	–	–	0.2	–
[9], 1 µM	–	–	–	0.05	–
[9], 3 µM	–	–	–	0.67	–
[20], 24 h	–	–	–	–	3.28
[20], 48 h	–	–	–	–	3.72

drug-induced phospholipidosis [%], [8]
Conditions	0.3 µM	0.833333 µM	3.33333 µM	6.66667 µM	10 µM	30 µM
24 h	2.9	6.1	51.1	120	118	24.5
48 h	6.71	6.12	41.5	172	169	–
72 h	6.1	4.78	42.6	–	–	–

Conditions	drug sensitivity score	relative viability EC50 [µM]
[10]	–	> 10
[15]	0.6	–
[16]	1.6	–
[17]	1	–
[18]	2	–
[19]	1.2	–
